The values that follow come from patent publication US6426401B1, “Pharmaceutical composition containing an inhibitor of immunoglobulin-receptor interaction” (Tecnogen S.C.p.A., priority 1996, dated 2002).

≈ marks a conversion by molar mass, not a printed value.

The subject of assay [1] is interaction IgE-receptor (FcεR of local mastcells). The experiment in a line: Passive cutaneous anaphylaxis assay (blueing lesions, Evan's Blue). Format: in vivo. The following applies: rat; for Extension of blueing lesion (%): intradermal with ascitic fluid IgE; for inhibition of IgE-receptor interaction in vivo (in words): passive cutaneous anaphylaxis. On the procedure:
Rat ascit fluid containing ovalbumin antigen specific IgE and with a total immunoglobulins amount of 4 mg/ml, scaled diluted in PBS, has been injected by intradermal route in a male rat of CD specie.
Intradermal injection of 50 μl volume have been done on the shaved back of the animal.
In this way it has been allowed ascitic fluid IgE to bind FcεR of local mastcells, sensitizing them.
After 24 h, 1 mg of ovalbumin and Evan's Blue dye at 2% concentration in 1 ml of PBS have been injected by endovenous route.
After 15 minutes it has been observed the presence on the rat back derma of a colored area whose extension and color intensity are proportional to the IgE antigen-specific amount injected together with the ascitic fluid.
The blueing lesions are given by the injected antigen that bind to the IgE and determined the degranulation and the release of mediators in the site of intradermal injection. Consequently a local increase of vascular permeability and a dye leak from vessel has been observed.
For the inhibition assay, the ascitic fluid containing IgE and properly diluted has been incubated with L-PAM and D-PAM peptides in total immunoglobulins-peptides molar ratio 1:2,1:20,1:200, 1:2000, 1:20.000, and 1:200.000, […]
Separate experiments for the two peptides have been performed.
In CD1 rats, 50 μl of the fluid ascitic-peptide mixture at various concentrations have been injected intradermally.
As a positive control it has been used a 50 μl injection of ascitic fluid free of peptide.
After 24 h the antigen, together with Evans's Blue dye, has been injected as described above.
After 15 minutes it has been observed that the intensity and extension of the blueing lesions on the rat back were […] to the amounts of the injected peptide and were completely absent at highest peptide concentrations.

A further assay relates to SRBC-IgG and U937 FcRs. Format: cell-based, human. The following applies: for IC50 (inhibitor amount necessary to reduce at 50% the rosettes formation between SRBC-IgG and U937 FcRs): U937/SRBC-IgG 1:100, 30 minutes at 25° C. From the text:
The trial has been carried on L-PAM and D-PAM peptides with the assay of rosettes formation inhibition between sheep red blood cells (SRBC) derivatized with human IgG and U937 cells (prepared as described above). Rosettes formation assay has been performed in accordance with the protocol of Lund J. et al. (FASEB J., 9, 115-119, 1995) modified as follows. The derivatized SRBC have been prepared using SRBC-tanned (tannic acid pretreated SRBC, Sigma Cat. No. R-8128) and human IgG (Sigma Cat. No. I-4506) following the provider protocol. […] No. A-9418) in DPBS (Sigma, Cat. No. D-5527). […] After 30 minutes at 25° C. rosettes have been counted, and more particularly U937 having 4 or more SRBC bound on the surface. In these conditions it has been discovered that, on the average, the 45% of treated U937 gave rosettes formation. In the above described conditions, it has been performed the inhibition assay of rosettes formation by using L-PAM , D-PAM, CON-L and CON-D peptides. A further control assay has been carried on by using IgG as inhibition positive control and not derivatized SRBC as negative control.

The subject of assay [2] is interaction between human IgG and receptors Fcγ (U937 plasma-membrane). The experiment in a line: IgG-FcR binding inhibition on U937 plasma-membrane (ELISA). From the text: For this purpose, it has been developed an inhibition assay of the binding between human immunoglobulins (Ig) IgG and IgA and their receptors on U937 human cell line plasma-membrane.
The IgG receptors FcgRI and FcgRII (Looney R. et al., J. Immunol., 136, 1641, 1986) and IgA receptors Fca (Monteiro R. C., et al., J. Exp.Med., 171, 597-613, 1990) are constitutively express by this cell line.
Microplates for ELISA determination (Falcon Cat. No. 3912) have been treated with plasma-membrane obtained from U937 cells in variable concentrations between 0.1 and 10 μg/ml (referred to the total proteins in the plasma-membrane preparation) in PBS, 100 μl/well, for 15 hours at 4° C.
After 1 hour and 30′ at room temperature, the plates have been washed 5 times with PBS-T (PBS-Tween 0.05%) and each well has been filled with 100 μl of solutions containing biotinilated Ig at variable concentrations between 0.02 and 2 μg/ml in PBS-BSA 0.5%.
After incubation of 1 h 30′ at 37° C., a solution of streptavidin derivatized with peroxidase has been added (Sigma, Cat. No. S-5512) diluted 1:1000 in PBS-BSA 0.5%, 100 μl/well. After 1 h incubation at 37° C., the plates have been washed 5 times with PBS-T and each well has been filled with 100 μl of a 2,2′-azino-bis(3-ethylbenzthiazoline-6-sulfonic acid) (Sigma, Cat. No. A-9941) in phosphate buffer pH 5 and 0.012% hydrogen peroxide.
After about 30′ the absorbance at 405 nm of each well has been determined by a plate reader (Merck, Mod. Mios) and the results are shown in TABLE 1.
The inhibition Ig/Fc assay has been carried out using U937 plasma-membrane at 10 μg/ml concentration for immobilization on plate and biotinilated Ig at 0.4 μg/ml concentration.
IgGs have been incubated with peptides of this invention (L-PAM, D-PAM and P-PAM) and two controls, namely peptides Arg-Thr-Tyr in L configuration (named CON-L) and in D configuration (named CON-D), at concentrations between 1 to 500 μg/ml (Table 2), whereas for IgA the inhibition assays have been carried out in similar conditions with L-PAM and CON-L peptides (Table 3).
B/B0 means the inhibition percentage calculated dividing the values, in terms of OD, obtained in presence of competitors, by those obtained in absence of competitors.
(In an ELISA, binding on a coated surface is turned into a signal by an enzyme label.)

Assay [3] concerns interaction between human IgA and receptors Fcα (U937 plasma-membrane). The experiment in a line: IgA/FcR binding inhibition on U937 plasma-membrane (ELISA). From the text:
For this purpose, it has been developed an inhibition assay of the binding between human immunoglobulins (Ig) IgG and IgA and their receptors on U937 human cell line plasma-membrane. The IgG receptors FcgRI and FcgRII (Looney R. et al., J. Immunol., 136, 1641, 1986) and IgA receptors Fca (Monteiro R. C., et al., J. Exp.Med., 171, 597-613, 1990) are constitutively express by this cell line. Microplates for ELISA determination (Falcon Cat. No. 3912) have been treated with plasma-membrane obtained from U937 cells in variable concentrations between 0.1 and 10 μg/ml (referred to the total proteins in the plasma-membrane preparation) in PBS, 100 μl/well, for 15 hours at 4° C. […] After incubation of 1 h 30' at 37° C., a solution of streptavidin derivatized with peroxidase has been added (Sigma, Cat. No. […] No. A-9941) in phosphate buffer pH 5 and 0.012% hydrogen peroxide. After about 30' the absorbance at 405 nm of each well has been determined by a plate reader (Merck, Mod. Mios) and the results are shown in TABLE 1. […] B/B0 has the above mentioned meaning.

[4] abbreviates: inhibitor amount 0.025 micrograms (first line).
Where [5] appears, read: inhibitor amount 0.025 micrograms.
Where [6] appears, read: inhibitor amount 2.5 micrograms.
Where [7] appears, read: inhibitor amount 250 micrograms.
Setting [8] is: inhibitor amount 2500 micrograms.

Consider `C[C@H](O)[C@@H](NC(=O)[C@H](N)CCCNC(=N)N)C(=O)N[C@H](Cc1ccc(O)cc1)C(=O)NCCCC[C@H](NC(=O)[C@@H](Cc1ccc(O)cc1)NC(=O)[C@H](NC(=O)[C@H](N)CCCNC(=N)N)[C@H](C)O)C(=O)NCCCC[C@H](NC(=O)[C@H](CCCCNC(=O)[C@@H](Cc1ccc(O)cc1)NC(=O)[C@H](NC(=O)[C@H](N)CCCNC(=N)N)[C@H](C)O)NC(=O)[C@@H](Cc1ccc(O)cc1)NC(=O)[C@H](NC(=O)[C@H](N)CCCNC(=N)N)[C@H](C)O)C(=O)NCC(=O)O` [D-PAM, (H2N-D-Arg-D-Thr-D-Tyr-CO)4-(Lys)2-Lys-Gly-OH], for which the “Extension of blueing lesion (%)” value stood at 60% in assay [1] (setting [4]); 37% in assay [1] (setting [5]); 33% in assay [1] (setting [6]); 20% in assay [1] (inhibitor amount 25 micrograms); 15% in assay [1] (setting [7]); 0% in assay [1] (setting [8]). The “inhibition of IgE-receptor interaction in vivo (in words)” value in assay [1] is listed as “able to inhibit in a dose dependent manner the interaction IgE-receptor up to a complete disappearance of the inflammatory reaction”. Further, in the assay on SRBC-IgG and U937 FcRs, the “inhibition of rosettes formation (in words)” value is given as “capable of inhibiting rosettes formation”. Moreover, in assay [2], the “inhibition of IgG-FcR interaction (in words)” value is listed as “produce, in a dose-dependent manner, the same interaction level as IgG”.
As to `C[C@@H](O)[C@H](NC(=O)[C@@H](N)CCCNC(=N)N)C(=O)N[C@@H](Cc1ccc(O)cc1)C(=O)NCCCC[C@H](NC(=O)[C@H](Cc1ccc(O)cc1)NC(=O)[C@@H](NC(=O)[C@@H](N)CCCNC(=N)N)[C@@H](C)O)C(=O)NCCCC[C@H](NC(=O)[C@H](CCCCNC(=O)[C@H](Cc1ccc(O)cc1)NC(=O)[C@@H](NC(=O)[C@@H](N)CCCNC(=N)N)[C@@H](C)O)NC(=O)[C@H](Cc1ccc(O)cc1)NC(=O)[C@@H](NC(=O)[C@@H](N)CCCNC(=N)N)[C@@H](C)O)C(=O)NCC(=O)O` [L-PAM, (H2N-L-Arg-L-Thr-L-Tyr-CO)4-(Lys)2-Lys-Gly-OH], the “inhibition of IgA-FcR interaction (in words)” value in assay [3] is “specifically inhibit the interaction IgA-FcR”. In addition, the “Extension of blueing lesion (%)” value was 65% in assay [1] (setting [4]); 50% in assay [1] (setting [5]); 35% in assay [1] (setting [6]); 0% in assay [1] (inhibitor amount 25 micrograms); 0% in assay [1] (setting [7]); 0% in assay [1] (setting [8]). Besides, the “inhibition of IgE-receptor interaction in vivo (in words)” value in assay [1] was “able to inhibit in a dose dependent manner the interaction IgE-receptor up to a complete disappearance of the inflammatory reaction”. Besides, the “inhibition of rosettes formation (in words)” value in the assay with SRBC-IgG and U937 FcRs is recorded as “capable of inhibiting rosettes formation”. Also, the “IC50 (inhibitor amount necessary to reduce at 50% the rosettes formation between SRBC-IgG and U937 FcRs)” value with SRBC-IgG and U937 FcRs stood at 78 µg/mL (≈ 36.4 µM). In assay [2], the “inhibition of IgG-FcR interaction (in words)” value was “produce, in a dose-dependent manner, the same interaction level as IgG”.
In the case of “(H2N-L-Arg(Pmc)-L-Thr(OtBu)-L-Tyr(OtBU)-CO)4-(Lys)2-Lys-Gly-OH [P-PAM]”, the “inhibition of IgA-FcR interaction (in words)” value in assay [3] is given as “specifically inhibit the interaction IgA-FcR”. In addition, in assay [2], the “inhibition of IgG-FcR interaction (in words)” value is listed as “produce, in a dose-dependent manner, the same interaction level as IgG”.
In the case of Arg-Thr-Tyr [CON-L, reference compound], the “inhibition of IgA-FcR interaction (in words)” value in assay [3] was “unable to produce the same effect”. Moreover, in the assay on SRBC-IgG and U937 FcRs, the “inhibition of rosettes formation (in words)” value is on record as “unable to inhibit this interaction”; the “IC50 (inhibitor amount necessary to reduce at 50% the rosettes formation between SRBC-IgG and U937 FcRs)” value was “No Inhibition”. Also, the “inhibition of IgG-FcR interaction (in words)” value in assay [2] is “unable to inhibit this interaction”.
Take “bovine serum albumin [BSA, reference compound]”: the “inhibition of IgA-FcR interaction (in words)” value in assay [3] is given as “unable to produce the same effect”. Besides, the “inhibition of IgG-FcR interaction (in words)” value in assay [2] is reported as “unable to inhibit this interaction”.
